Results from US20070118920A1, “Herbicide-resistant sunflower plants, polynucleotides encoding herbicide-resistant acetohydroxyacid synthase large subunit proteins, and methods of use” (priority 2005, published 2007).

Key:
[1] = system: RHA266 (wild-type) sunflower plants; test: Field trial, tolerance to sulfonylurea herbicides (% injury); format: in vivo, Helianthus annuus; details: six-leaf stage
Excerpt: (§1) To evaluate the resistance of MUT9 sunflower plants to sulfonylurea herbicides, RHA266 (wild-type) and MUT9 sunflower plants were planted outdoors in Balcarce, Argentina during the growing season in an RCBD field trial with two replications to evaluate the tolerance of homozygous M5 MUT9 plants to the sulfonylurea herbicides tribenuron methyl (TBM) and thifensulfuron (TFS) at 1× and 2× rates applied at the six-leaf stage. Due to the lack of MUT9 seed, one herbicide was sprayed in each replication. The 1× rates for TBM and TFS are 13.15 g a.i./ha and 4.4 g a.i./ha, respectively.

[2] = system: homozygous M5 MUT9 sunflower plants; test: as above; format: in vivo, Helianthus annuus; details: six-leaf stage
Excerpt: as §1

[3] = rate 2X (1X: TBM 13.15 g a.i./ha, TFS 4.4 g a.i./ha)
[4] = rate 1X (TBM 13.15 g a.i./ha, TFS 4.4 g a.i./ha)

Compound	% Injury [1, 3] [%]	% Injury [2, 4] [%]	% Injury [2, 3] [%]	% Injury [1, 4] [%]
COC(=O)c1ccccc1S(=O)(=O)NC(=O)N(C)c1nc(C)nc(OC)n1 [TBM, tribenuron methyl]	45	75	75	–
COc1nc(C)nc(NC(=O)NS(=O)(=O)c2ccsc2C(=O)O)n1 [TFS, thifensulfuron]	75	75	75	75
